Measurements reported in ChEMBL document CHEMBL5729418, “Compounds and methods useful in the treatment of a PRMT5-mediated disorder” (2022).

Molecular target: PRMT5/MEP50 complex (Homo sapiens, UniProt O14744)
Assay: Chemiluminescent Assay: A PRMT5 chemiluminescent assay was used to measure the IC50 activity of PRMT5 of the compounds of Examples 1A to 7 above. Biotinylated histone peptides were synthesized and attached to 384-well plates. Compound serial dilutions were performed and added to the assay plate. Histone H4 monomethyl R3 antibody was obtained from Abcam. A master mix for each well was prepared and human PRMT5/MEP50 (expressed in HEK293 cells) diluted in assay buffer to a concentration of 5 ng/μL. The reaction was incubated and slowly rotated for 60 minutes at the point of PRMT5/MEP50 addition. The supernatant from the wells was removed and blocking buffer was added to each well and rotated for 10 minutes. The primary antibody was diluted and added to every well for 60 minutes, before it was removed and the wells washed. The horse raddish peroxidase (HRP)-coupled secondary antibody was diluted and added to each well with an incubation time of 30 minutes. The HRP chemiluminescent substrate was added to every well. The plate was read on a Flourstar Omega BMG Labtech instrument (Ortenberg, Germany) and the analysis of IC50 was performed using the Flourstar Omega BMG Labtech software.
Type: cell-based

Chain of PRMT5/MEP50 complex (O14744 whole entry): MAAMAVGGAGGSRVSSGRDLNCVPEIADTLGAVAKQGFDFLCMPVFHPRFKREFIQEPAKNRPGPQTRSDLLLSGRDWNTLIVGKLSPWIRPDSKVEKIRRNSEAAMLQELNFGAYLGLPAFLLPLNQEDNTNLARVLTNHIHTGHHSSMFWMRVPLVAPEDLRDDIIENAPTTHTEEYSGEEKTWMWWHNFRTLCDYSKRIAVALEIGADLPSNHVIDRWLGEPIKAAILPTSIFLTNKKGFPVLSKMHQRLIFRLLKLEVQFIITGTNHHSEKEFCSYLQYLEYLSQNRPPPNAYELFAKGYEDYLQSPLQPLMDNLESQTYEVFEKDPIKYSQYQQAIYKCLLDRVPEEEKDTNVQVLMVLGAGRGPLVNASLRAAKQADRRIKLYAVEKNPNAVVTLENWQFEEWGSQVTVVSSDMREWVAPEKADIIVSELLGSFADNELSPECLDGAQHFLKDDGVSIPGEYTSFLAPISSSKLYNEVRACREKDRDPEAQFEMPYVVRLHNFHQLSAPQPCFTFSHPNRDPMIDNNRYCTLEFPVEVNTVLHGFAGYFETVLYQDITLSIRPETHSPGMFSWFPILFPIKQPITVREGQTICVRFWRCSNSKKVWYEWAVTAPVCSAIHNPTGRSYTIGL
Chain of PRMT5/MEP50 complex (Q9BQA1 whole entry, further chain): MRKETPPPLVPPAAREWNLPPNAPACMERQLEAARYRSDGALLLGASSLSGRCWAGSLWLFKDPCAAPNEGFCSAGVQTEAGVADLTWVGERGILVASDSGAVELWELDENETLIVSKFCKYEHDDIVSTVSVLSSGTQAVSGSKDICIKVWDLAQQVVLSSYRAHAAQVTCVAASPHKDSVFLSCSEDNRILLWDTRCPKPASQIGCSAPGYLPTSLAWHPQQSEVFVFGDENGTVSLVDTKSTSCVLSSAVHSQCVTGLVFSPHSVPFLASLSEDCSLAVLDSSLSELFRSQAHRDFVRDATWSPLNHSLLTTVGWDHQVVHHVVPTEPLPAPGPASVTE

Compound: O=C(OCC(O)CN1CCc2ccccc2C1)N1CCCC(c2ccccc2)C1 (stereo unspecified)
- IC50: 75 nM
